Source: ChEMBL document CHEMBL2010725, “Synthesis and Cardiac Imaging of (18)F-Ligands Selective for β1-Adrenoreceptors” (ACS Med Chem Lett, 2011)

Columns and labels:
[1] = biological target: Beta-1 adrenergic receptor (Homo sapiens, UniProt P08588); experiment: Displacement of [3H](-)-CGP-12177 from adrenergic beta1 receptor by cell based assay
[2] = Selectivity ratio of IC50 for adrenergic beta2 receptor to IC50 for adrenergic beta1 receptor
Rattus norvegicus [3] = experiment: Drug metabolism in rat assessed as progressive loss of parent compound at 1 mCi/kg, iv after 30 mins by HPLC analysis; assay type: ADME, organism-based; conditions: in vivo, 0.5 h
[4] = Drug uptake in Sprague-Dawley rat myocardium after <5 mins by microPET analysis; assay type: ADME, tissue-based; conditions: in vivo
Liver [5] = experiment: Drug uptake in Sprague-Dawley rat liver after <5 mins by microPET analysis; assay type: ADME; conditions: in vivo
Heart = experiment: Biodistribution in Sprague-Dawley rat heart at 15 uCi after 30 mins by gamma counting; assay type: ADME, organism-based; conditions: in vivo, 0.5 h
[6] = Ratio of drug level in lung to heart in Sprague-Dawley rat at 15 uCi after 30 mins by gamma counting; conditions: in vivo, 0.5 h
Rattus norvegicus [7] = experiment: Drug metabolism in rat assessed as progressive loss of parent compound at 1 mCi/kg, iv after 2 mins by HPLC analysis; assay type: ADME, organism-based; conditions: in vivo
Femur = experiment: Biodistribution in Sprague-Dawley rat femur at 15 uCi after 30 mins by gamma counting; assay type: ADME, organism-based; conditions: in vivo, 0.5 h
Liver [8] = experiment: Drug uptake in Sprague-Dawley rat liver at 1 mCi after 30 mins by microPET analysis; assay type: ADME, tissue-based; conditions: in vivo, 0.5 h
Muscle tissue = experiment: Biodistribution in Sprague-Dawley rat muscle at 15 uCi after 30 mins by gamma counting; assay type: ADME, organism-based; conditions: in vivo, 0.5 h
Spleen = experiment: Biodistribution in Sprague-Dawley rat spleen at 15 uCi after 30 mins by gamma counting; assay type: ADME, organism-based; conditions: in vivo, 0.5 h
Kidney = experiment: Biodistribution in Sprague-Dawley rat kidney at 15 uCi after 30 mins by gamma counting; assay type: ADME, organism-based; conditions: in vivo, 0.5 h
Liver [9] = experiment: Drug uptake in Sprague-Dawley rat liver at 1 mCi after 60 mins by microPET analysis; assay type: ADME, tissue-based; conditions: in vivo, 1 h
[10] = Drug uptake in Sprague-Dawley rat myocardium at 1 mCi after 60 mins by microPET analysis; assay type: ADME, tissue-based; conditions: in vivo, 1 h
[11] = Drug excretion in rat urine assessed as parent compound at 1 mCi/kg, iv after 30 mins by HPLC analysis; assay type: ADME, organism-based; conditions: read-out: Drug excretion
[12] = Drug uptake in Sprague-Dawley rat myocardium at 1 mCi after 30 mins by microPET analysis; assay type: ADME, tissue-based; conditions: in vivo, 0.5 h
Blood = experiment: Biodistribution in Sprague-Dawley rat blood at 15 uCi after 30 mins by gamma counting; assay type: ADME, organism-based; conditions: in vivo, 0.5 h
Lung [13] = experiment: Drug uptake in Sprague-Dawley rat lung after <5 mins by microPET analysis; assay type: ADME, tissue-based; conditions: in vivo
Lung [14] = experiment: Biodistribution in Sprague-Dawley rat lung at 15 uCi after 30 mins by gamma counting; assay type: ADME, organism-based; conditions: in vivo, 0.5 h
Liver [15] = experiment: Biodistribution in Sprague-Dawley rat liver at 15 uCi after 30 mins by gamma counting; assay type: ADME, organism-based; conditions: in vivo, 0.5 h

Sequence of Beta-1 adrenergic receptor (P08588 whole entry): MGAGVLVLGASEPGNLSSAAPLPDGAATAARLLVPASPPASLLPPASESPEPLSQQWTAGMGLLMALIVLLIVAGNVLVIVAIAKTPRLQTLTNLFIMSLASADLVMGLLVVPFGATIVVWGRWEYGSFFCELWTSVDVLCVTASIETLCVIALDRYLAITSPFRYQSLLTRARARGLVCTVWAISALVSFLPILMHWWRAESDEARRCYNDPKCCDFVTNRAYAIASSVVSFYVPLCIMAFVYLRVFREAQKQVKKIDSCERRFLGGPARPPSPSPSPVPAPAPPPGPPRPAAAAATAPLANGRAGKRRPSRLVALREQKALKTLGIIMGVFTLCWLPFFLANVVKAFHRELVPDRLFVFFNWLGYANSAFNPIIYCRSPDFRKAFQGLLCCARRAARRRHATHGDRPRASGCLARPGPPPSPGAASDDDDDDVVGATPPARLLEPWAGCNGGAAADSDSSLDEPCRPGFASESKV

Row | Compound | IC50 [1] [nM] | Ratio IC50 [2] | further results
1 | N#Cc1ccccc1OC[C@@H](O)CNCCNC(=O)Nc1ccc(OCCF)nc1 | 0.1 | 50 | 
2 | N#Cc1ccccc1OC[C@@H](O)CNCCNC(=O)Nc1ccc(OCCCF)cc1 | 0.25 | 65 | 
3 | N#Cc1ccccc1OC[C@@H](O)CNCCNC(=O)NC1CCN(CCF)CC1 | > 100 | 0.05 | 
4 | N#Cc1ccccc1OC[C@@H](O)CNCCNS(=O)(=O)c1ccccc1F | 5 | 0.1 | 
5 | N#Cc1ccccc1OC[C@@H](O)CNCCCC(=O)Nc1ccc(F)nc1 | 3 | 30 | 
6 | N#Cc1ccccc1OC[C@@H](O)CNCCNC(=O)c1ccc(F)nc1 | 10 | 4 | 
7 | N#Cc1ccccc1OC[C@@H](O)CNCCNC(=O)N1CCOCC1 | 20 | 4 | 
8 | N#Cc1ccccc1OC[C@@H](O)CNCCNC(=O)Cc1ccc(F)cc1 | 0.14 | 6 | 
9 | N#Cc1ccccc1OC[C@@H](O)CNCCNC(=O)Nc1ccc(OCCF)cc1 | 0.08 | 448 | 
10 | N#Cc1ccccc1OC[C@@H](O)CNCCNC(=O)Nc1cnc(Br)cn1 | 0.35 | 163 | 
11 | N#Cc1ccc(F)cc1OC[C@@H](O)CNCCNC(=O)Nc1ccc(C(=O)O)cc1 | 2 | 70 | 
12 | CCOc1ccc(NC(=O)NCCNC[C@H](O)COc2cccc(F)c2C#N)cc1 | 2 | 32 | 
13 | N#Cc1ccccc1OC[C@@H](O)CNCCNC(=O)Nc1cccc(OCC[18F])c1 |  |  | Drug metabolism (Rattus norvegicus [3]): 44%; Drug uptake [4]: Active; Drug uptake (Liver [5]): Active; Drug uptake (Heart): 0.62 % ID/g; Ratio [6]: 1.27; Drug metabolism (Rattus norvegicus [7]): 83%; Drug uptake (Femur): 0.16 % ID/g; Drug uptake (Liver [8]): Active; Drug uptake (Muscle tissue): 0.1 % ID/g; Drug uptake (Spleen): 0.52 % ID/g; Drug uptake (Kidney): 2.01 % ID/g; Drug uptake (Liver [9]): Not Active; Drug uptake [10]: Not Active; dose excreted at 0.5 h [11]: 76%; Drug uptake [12]: Active; Drug uptake (Blood): 0.14 % ID/g; Drug uptake (Lung [13]): Active; Drug uptake (Lung [14]): 0.79 % ID/g; Drug uptake (Liver [15]): 1.14 % ID/g
14 | N#Cc1ccccc1OC[C@@H](O)CNCCNC(=O)Nc1ccc(I)nc1 | 0.05 | 723 | 
15 | N#Cc1ccccc1OC[C@@H](O)CNCCNC(=O)Nc1ccc(F)nc1 | 0.3 | 345 | 
16 | N#Cc1ccccc1OC[C@@H](O)CNCCNC(=O)Nc1ccc(F)cc1 | 0.1 | 150 | 
17 | N#Cc1ccccc1OC[C@@H](O)CNCCNC(=O)Nc1ccc(C(=O)O)c(F)c1 | 1 | 511 | 
18 | N#Cc1ccccc1OC[C@@H](O)CNCCNC(=O)Nc1nccs1 | 26 | 8 | 
19 | N#Cc1ccccc1OC[C@@H](O)CNCCNC(=O)Nc1ccc(Br)nc1 | 0.05 | > 1000 | 
20 | N#Cc1ccccc1OC[C@@H](O)CNCCNC(=O)Nc1ccc(OCCC[18F])cc1 |  |  | Drug uptake (Heart): 0.42 % ID/g; Ratio [6]: 1.5; Drug uptake (Femur): 0.63 % ID/g; Drug uptake (Liver [8]): Active; Drug uptake (Muscle tissue): 0.09 % ID/g; Drug uptake (Spleen): 0.4 % ID/g; Drug uptake (Kidney): 1.38 % ID/g; Drug uptake (Liver [9]): Not Active; Drug uptake [10]: Not Active; Drug uptake [12]: Active; Drug uptake (Blood): 0.21 % ID/g; Drug uptake (Lung [14]): 0.63 % ID/g; Drug uptake (Liver [15]): 1.03 % ID/g
21 | N#Cc1ccccc1OC[C@@H](O)CNCCNC(=O)Nc1ccccc1F | 0.2 | 69 | 
22 | COc1ccc(NC(=O)NCCNC[C@H](O)COc2ccccc2C#N)cc1 | 0.11 | 145 | 
23 | N#Cc1c(F)cccc1OC[C@@H](O)CNCCNC(=O)Nc1ccc(C(=O)O)cc1 | 21 | 164 | 
24 | N#Cc1ccccc1OC[C@@H](O)CNCCNC(=O)Nc1nnn(CCF)n1 | 10 | 10 | 
25 | N#Cc1ccccc1OC[C@@H](O)CNCCNC(=O)Nc1cccc(OCCF)c1 | 0.04 | 265 | 
26 | CC(CF)Nc1ccc(NC(=O)NCCNC[C@H](O)COc2ccccc2C#N)cc1 (stereo partly drawn) | 1.5 | 13 | 
27 | N#Cc1ccccc1OC[C@@H](O)CNCCNC(=O)Nc1ccc(OCC[18F])cc1 |  |  | Drug uptake (Heart): 0.48 % ID/g; Ratio [6]: 2; Drug uptake (Femur): 0.27 % ID/g; Drug uptake (Liver [8]): Active; Drug uptake (Muscle tissue): 0.08 % ID/g; Drug uptake (Spleen): 0.37 % ID/g; Drug uptake (Kidney): 1.26 % ID/g; Drug uptake (Liver [9]): Not Active; Drug uptake [10]: Not Active; Drug uptake [12]: Active; Drug uptake (Blood): 0.18 % ID/g; Drug uptake (Lung [14]): 0.97 % ID/g; Drug uptake (Liver [15]): 1.14 % ID/g
